From US20130288980A1, “TARGETING SENESCENT AND CANCER CELLS FOR SELECTIVE KILLING BY INTERFERENCE WITH FOXO4” (Buck Institute for Research on Aging, priority 2012, published 2013)
Entries after “also recorded” stand apart in the source; their conditions may differ.

Experiments:
[1] = system: FOXO4; assay: FOXO4 knockdown by lentiviral short hairpins: FOXO4 mRNA (QPCR) and punctate FOXO4 staining after 10Gy XRAY; type: cell-based, human; conditions: HCA2 fibroblasts, 8 days after 10Gy XRAY
Experimental: FIG. 1A: 3×10^6 Normal Human IMR90 fibroblasts were plated in 6 cm dishes and the next day exposed to 10Gy ionizing radiation (XRAY) or left untreated. At the indicated time-points protein samples were prepared by collecting the cells in 1× Laemli Sample buffer. The indicated proteins were detected by western blot using antibodies against FOXO4 (#9472, Cell Signaling), FOXO3a (#07-702, Upstate/Millipore) and Tubulin (B-5-1-2, Sigma-Aldrich). FIG. 1B: 10^4 Normal human HCA2 fibroblasts were plated in 96-well plates in triplicate per condition and the next day exposed to 10Gy ionizing radiation (XRAY) or left untreated. At the indicated time-points mRNA and subsequent cDNA samples were collected using the Cells-to-Ct kit from Ambion according to the manufacturer's instructions. Real-time QPCR was subsequently performed using the Universal Probe Library system from Roche with the following primers/probe combinations: For FOXO4: Probe 18, FOXO4-fwd: 5′-[…]-3′, FOXO4-Rev: 5′-[…]-3′. For Tubulin: Probe 58, Tubulin-Fwd: 5′-[…]-3′ and Tubulin-Rev 5′-[…]-3′. Changes in mRNA expression were calculated using the ΔΔCT method. FIG. 1C: 2×10^5 IMR90 fibroblasts were plated on glass coverslips and the next day exposed to 10Gy ionizing radiation (XRAY) or left untreated. […]

[2] = system: A375 melanoma cells; assay: A375-shGFP versus A375-shFOXO4 sensitivity to chemotherapeutic agents (MTS); type: cell-based, human
Experimental: FIG. 12A: 2×10^4 A375-shGFP or A375-shFOXO4-2 cells were plated in triplicate in 96-well plate chambers. The next day the cells were incubated with the indicated concentrations of PLX4032 or left untreated. After 6 days the a CellTiter 96® AQueous One Solution Cell Proliferation Assay (MTS) was performed according to the manufacturer's instructions (Promega) to determine the relative number of cells versus Mock treated A375-shGFP or A375-shFOXO4-2 melanoma cells (Left panel). Additionally, in a separate experiment the cells were refreshed at day 7 with the same dose of PLX4032 and left for another 4 days after which the same procedure was performed. FIG. 12B: Similar experiment as in A), except with the general RAF inhibitor RAF265. FIG. 12C: Similar experiment as in A), except with the MEK inhibitor AZD6244.

[3] = system: BRAFV600E-mutated A375 malignant melanoma cells; assay: Cytochrome C release in shFOXO4-infected A375 cells treated with PLX4032; type: cell-based, human; conditions: shFOXO4 versus control hairpin; PLX4032 0.5, 2 and 10 μM
Experimental: FIG. 9B: BRAF^V600E-mutated A375 malignant melanoma cells were infected as in FIG. 2a and selected for 3 days with 1 μg/ml Puromycin. Subsequently 2×10^4 cells were plated in triplicate on glass coverslips in 24-well plate chambers. The next day the cells were incubated with the indicated concentrations of the BRAF^V600E-inhibitor PLX4032 in the presence of 20 μM of the general caspase-inhibitor Q-VD-OPH. After 5 days the cells were processed as in FIG. 2b for Cytochrome C staining and the percentage of cells with Cytochrome C release was quantified.

[4] = system: BRAFV600E-driven melanoma cells such as A375; conditions: Sala et al. 2008; cited from earlier work
[5] = system: metastatic melanoma; conditions: patients with metastatic melanoma; Bollag 2010, Sosman 2012; cited from earlier work

Row | Compound | knockdown of FOXO4 mRNA and reduction in punctate FOXO4 staining [1] | sensitivity of A375-shFOXO4 compared with A375-shGFP cells to the drug [2] | other results
1 | 5′-CGTCCACGAAGCAGTTCAAAT-3′ [shFOXO4-2] | induce knockdown of FOXO4 mRNA and reduction in punctate FOXO4 |  | 
2 | Cn1c(Nc2ccc(C(F)(F)F)cc2)nc2cc(Oc3ccnc(-c4ncc(C(F)(F)F)[nH]4)c3)ccc21 [RAF265] |  | more sensitive | 
3 | 5′-CCAGCTTCAGTCAGCAGTTAT-3′ [shFOXO4-1] | induce knockdown of FOXO4 mRNA and reduction in punctate FOXO4 |  | 
4 | N.N.[Cl][Pt][Cl] [Cisplatin] |  | more sensitive | 
5 | CCCS(=O)(=O)Nc1ccc(F)c(C(=O)c2c[nH]c3ncc(-c4ccc(Cl)cc4)cc23)c1F [PLX4032] |  | more sensitive | sensitivity to PLX4032 on FOXO4 knockdown (Cytochrome C release) [3]: strongly sensitized; also recorded: Increased sensitivity; apoptosis [4]: trigger apoptosis; tumor-free survival rates [5]: Major improvements in tumor-free survival rates
6 | Cn1cnc2c(F)c(Nc3ccc(Br)cc3Cl)c(C(=O)NOCCO)cc21 [AZD6244] |  | more sensitive | 
